Assay: Solubility of the compound in water at room temperature
Format: physicochemical
Conditions: room temperature (25° C.)
Description: 23.5 g of perfluoro(3-dibutylaminopropionic acid) was neutralized with 1.5 g of calcium hydroxide in a methanol/water mixed solution. The precipitated crystals were separated by filtration, and dried at 100° C., whereby 23.5 g of perfluoro(3-dibutylaminopropionic acid) calcium represented by the following formula (376) was obtained (yield of 97%). The solubility of the present compound in water at room temperature (25° C.) was 2 [g/100 g-H2O].
15.0 g of perfluoro(3-dibutylaminopropionic acid) obtained in the same manner as in Synthesis Example 1 was neutralized with 1.2 g of magnesium hydroxide in a methanol/water mixed solution. Next, the precipitated crystals were separated by filtration, and by extracting with methanol, a magnesium salt was obtained. The methanol was distilled off, whereby 14.4 g of perfluoro(3-dibutylaminopropionic acid) magnesium represented by the following formula (379) was obtained (yield of 94%). The solubility of the present compound in water at room temperature was 0.009 [g/100 g-H2O].
15.0 g of perfluoro(3-dibutylaminopropionic acid) obtained in the same manner as in Synthesis Example 1 was neutralized with 4.0 g of barium hydroxide octahydrate in a methanol/water mixed solution. […]

O=C(O)C(F)(F)C(F)(F)N(C(F)(F)C(F)(F)C(F)(F)C(F)(F)F)C(F)(F)C(F)(F)C(F)(F)C(F)(F)F.[Mg] [Synthesis Example 4, perfluoro(3-dibutylaminopropionic acid) magnesium]
solubility of the present compound in water: 0.009 g/100 g-H2O

O=C(O)C(F)(F)C(F)(F)N(C(F)(F)C(F)(F)C(F)(F)C(F)(F)F)C(F)(F)C(F)(F)C(F)(F)C(F)(F)F.[Ba] [Synthesis Example 5, perfluoro(3-dibutylaminopropionic acid) barium]
solubility of the present compound in water: 0.04 g/100 g-H2O
